Results on 5 compounds are retold here after patent US20200352163A1, “ANTIMICROBIAL MIXTURE CONTAINING 4-(3-ETHOXY-4-HYDROXYPHENYL)BUTAN-2-ONE AND AN AROMATIC ALCOHOL, AND COSMETIC COMPOSITION CONTAINING SAME” (L'OREAL, priority 2017, published 2020).

Common to all, as to experiment: MIC / FIC synergy test in 96-well microplate, optical density at 620 nm
Common to all, as to format: cell-based
What all share (conditions): for microbial growth percentage: weight %

The test system of assay [1] is Aspergillus niger ATCC 6275. From the text:
(§1) FIC Index=(MIC of A with B/MIC of A)+(MIC of B with A/MIC of B)
(§2) with: • MIC of A with B: minimum concentration of product A in the combination A+B which makes it possible to obtain an inhibitory effect; • MIC of B with A: minimum concentration of product B in the combination A+B which makes it possible to obtain an inhibitory effect; • MIC of A: minimum inhibitory concentration of product A alone; • MIC of B: minimum inhibitory concentration of product B alone.
(§3) As regards the combinations tested, MIC of A with B and MIC of B with A are the respective concentrations of A and of B in the combinations which make it possible to obtain a microbial growth percentage of less than or equal to 20%.
(§4) When the FIC index value is less than or equal to 1, it is considered that the combination of test compounds has a synergistic effect.
The microbial strain Aspergillus niger ATCC 6275, and a double-concentration Sabouraud broth liquid culture medium supplemented with polyoxyethylenated (20 OE) sorbitan monopalmitate (Tween 40 from Croda) and Phytagel© BioReagent were used (i.e. a mixture of 5 g of Phytagel+0.6 g Tween 40+60 g of Sabouraud broth).
(§5) A 96-well microplate and an incubation temprature of 32.5° C. are used.
(§6) The incubation time of the microplate is: • from 18 to 24 h under aerobic conditions for Candida albicans ATCC 10231, Pseudomonas aeruginosa ATCC 9027 and Staphylococcus aureus ATCC 6538; • from 24 to 30 h under aerobic conditions for microbial Aspergillus niger ATCC 6275; • from 24 to 48 h under aerobic conditions for Enterococcus faecalis ATCC 33186.
(§7) A 10% (weight/volume) stock solution was prepared by mixing 1 g of compound in 9 ml of aqueous 1‰ agar solution. Successive dilutions were made with the 1‰ agar solution.
(§8) 50 μl of each of the daughter solutions obtained containing compound A or B are added to the microplate wells. 100 μl of Sabouraud liquid nutrient broth inoculated at double concentration with the Aspergillus niger strain and 50 μl of aqueous 1‰ agar solution are also added thereto.
(§9) 50 μl of each of the daughter solutions obtained containing compound A and 50 μl of each of the daughter solutions obtained containing compound B are added to the microplate wells. 100 μl of Sabouraud liquid nutrient broth inoculated at double concentration with the strain Aspergillus niger are also added thereto.
(§10) A positive microbial growth control was also prepared. The positive microbial growth control corresponds to a mixture of 100 μl of aqueous 1‰ agar solution with 100 μl of Sabouraud liquid nutrient broth inoculated at double concentration with the strain Aspergillus niger in the absence of compounds A and B.
(§11) An absorbance control was performed in parallel on compounds A and B alone. This control corresponds to 100 μl of double concentration sterile Sabouraud liquid nutrient broth+100 μl of double concentration compound A or B.
(§12) In the three cases (absorbance control, growth control and test), the final volume present in each of the microplate wells is 200 μl.
In the two cases (test and control), the inoculum represents the concentration of the Aspergillus niger strain present in the final volume of the wells (200 μl) and is between 2 and 6×10^5 cfu/ml of Aspergillus niger.

Assay [2] deals with Enterococcus faecalis ATCC 33186.
Excerpt: as §1, §2, §3, §4
The microbial strain Enterococcus faecalis ATCC 33186 and a double-concentration BHI (Brain Heart Infusion) broth liquid culture medium were used.
as §5, §6, §7, §8, §9, §10, §11, §12
(§13) The test as described above (tests, absorbance control and growth control) was performed again to test the combination A+B on the following strains Enterococcus faecalis, Staphylococcus aureus, Pseudomonas aeruginosa, Candida albicans.

In assay [3] the test system is Staphylococcus aureus ATCC 6538.
Excerpt: as §1, §2, §3, §4
The microbial strain Staphylococcus aureus ATCC 6538 and a double-concentration nutrient broth liquid culture medium were used.
as §5, §6, §7, §8, §9, §10, §11, §12, §13

In assay [4] the test system is Candida albicans ATCC 10231.
Excerpt: as §1, §2, §3, §4
The microbial strain Candida albicans ATCC 10231 and a double-concentration Sabouraud broth liquid culture medium were used.
as §5, §6, §7, §8, §9, §10, §11, §12, §13

Assay [5] concerns Pseudomonas aeruginosa ATCC 9027.
Excerpt: as §1, §2, §3, §4
The microbial strain Pseudomonas aeruginosa ATCC 9027 and a double-concentration nutrient broth liquid culture medium were used.
as §5, §6, §7, §8, §9, §10, §11, §12, §13

The mark [6] stands for this setting: first concentration giving growth <= 20%.
Setting [7] is: Example 1, first concentration giving growth <= 20%.
Where [8] appears, read: Example 5, first concentration giving growth <= 20%.

In the case of `OCc1ccccc1` [B3, benzyl alcohol], the microbial growth percentage in assay [1] (0.0125 B3 alone) was 94%; in assay [1] (0.25 B3 alone) it was 31%; in assay [1] (0.5 B3 alone) it was 1%; in assay [2] (0.25 B3 alone) it was 77%; in assay [2] (0.5 B3 alone), 30%; in assay [2] (1 B3 alone) it was 3%. Further, the “% MIC of B3 alone” value in assay [1] (setting [6]) worked out at 0.5%; in assay [2] (setting [6]), 1%.

As to `CCOc1cc(CCC(C)=O)ccc1O` [A, 4-(3-ethoxy-4-hydroxyphenyl)butan-2-one], the microbial growth percentage was 85% in assay [1] (0.0625 A alone, Example 1); 86% in assay [1] (0.0625 A alone, Example 5); 47% in assay [1] (0.125 A alone, Example 1); 41% in assay [1] (0.125 A alone, Example 5); 7% in assay [1] (0.25 A alone, Example 1); 6% in assay [1] (0.25 A alone, Example 5). Besides, the microbial growth percentage is on record as 71% in assay [3] (0.0625 A alone); 57% in assay [3] (0.125 A alone); 52% in assay [3] (0.25 A alone); 1% in assay [3] (0.5 A alone); 82% in assay [2] (0.0625 A alone, Example 1); 78% in assay [2] (0.0625 A alone, Example 5). Further, the microbial growth percentage in assay [2] (0.0625 A alone, Example 6) is on record as 42%; in assay [2] (0.125 A alone, Example 1), 89%; in assay [2] (0.125 A alone, Example 5), 86%; in assay [2] (0.125 A alone, Example 6), 42%; in assay [2] (0.25 A alone, Example 1), 89%; in assay [2] (0.25 A alone, Example 5) it was 92%. Besides, the microbial growth percentage in assay [2] (0.25 A alone, Example 6) was 33%; in assay [2] (0.5 A alone, Example 1), 75%; in assay [2] (0.5 A alone, Example 5) it was 72%; in assay [2] (0.5 A alone, Example 6) it was 34%; in assay [2] (1 A alone, Example 1) it was 13%; in assay [2] (1 A alone, Example 5), 4%. In addition, the microbial growth percentage is reported as 24% in assay [2] (1 A alone, Example 6); 48% in assay [4] (0.025 A alone, Example 1); 85% in assay [4] (0.025 A alone, Example 3); 69% in assay [4] (0.025 A alone, Example 6); 29% in assay [4] (0.05 A alone, Example 1); 64% in assay [4] (0.05 A alone, Example 3). Further, the microbial growth percentage in assay [4] (0.05 A alone, Example 6) worked out at 63%; in assay [4] (0.1 A alone, Example 1) it was 16%; in assay [4] (0.1 A alone, Example 3) it was 25%; in assay [4] (0.1 A alone, Example 6), 38%; in assay [4] (0.2 A alone, Example 3), 3%; in assay [4] (0.2 A alone, Example 6) it was 4%. The microbial growth percentage in assay [5] (0.0625 A alone) was 49%; in assay [5] (0.125 A alone) it was 82%; in assay [5] (0.25 A alone), 116%; in assay [5] (0.5 A alone) it was 67%; in assay [5] (1 A alone), −4%. Also, the “% MIC of A alone” value worked out at 0.25% in assay [1] (setting [7]); 0.25% in assay [1] (setting [8]); 0.5% in assay [3] (setting [6]); 1% in assay [2] (setting [7]); 1% in assay [2] (setting [8]); 1% in assay [2] (Example 6). Besides, the “% MIC of A alone” value in assay [4] (setting [7]) came out at 0.1%; in assay [4] (Example 6, first concentration giving growth <= 20%), 0.2%; in assay [5] (setting [6]) it was 1%. The “% MIC A” value in assay [4] (A alone, Example 3, first concentration giving growth <= 20%) came out at 0.2%.

Regarding `Cc1cc(O)ccc1C(C)C` [B4, 4-isopropyl-3-methylphenol], the “% MIC of B4 alone” value in assay [2] is recorded as 0.1%; in assay [4] (setting [6]), 0.04%. Moreover, the microbial growth percentage is on record as 45% in assay [2] (0.0125 B4 alone); 44% in assay [2] (0.025 B4 alone); 27% in assay [2] (0.05 B4 alone); 23% in assay [2] (0.1 B4 alone); 87% in assay [4] (0.0025 B4 alone); 82% in assay [4] (0.005 B4 alone). Moreover, the figures for the microbial growth percentage in assay [4] (0.01 B4 alone), in assay [4] (0.02 B4 alone) and in assay [4] (0.04 B4 alone) were 73%, 35% and 1%, respectively.

Take `OCCc1ccccc1` [B2, phenylethyl alcohol]: the microbial growth percentage in assay [4] (0.125 B2 alone) turned out to be 41%; in assay [4] (0.25 B2 alone), 7%. In addition, the “MIC B2” value in assay [4] (B2 alone, first concentration giving growth <= 20%) came out at 0.25%.

Consider `OCCOc1ccccc1` [B1, 2-phenoxyethanol], for which the microbial growth percentage was 95% in assay [1] (0.0625 B1 alone); 89% in assay [1] (0.125 B1 alone); 8% in assay [1] (0.25 B1 alone); 66% in assay [3] (0.0625 B1 alone); 73% in assay [3] (0.125 B1 alone); 58% in assay [3] (0.25 B1 alone). In addition, the microbial growth percentage came to 1% in assay [3] (0.5 B1 alone); 87% in assay [2] (0.0625 B1 alone); 86% in assay [2] (0.125 B1 alone); 84% in assay [2] (0.25 B1 alone); 80% in assay [2] (0.5 B1 alone); 6% in assay [2] (1 B1 alone). Further, the microbial growth percentage in assay [4] (0.0625 B1 alone) is recorded as 44%; in assay [4] (0.125 B1 alone), 22%; in assay [4] (0.25 B1 alone), 2%; in assay [5] (0.0625 B1 alone), 45%; in assay [5] (0.125 B1 alone), 39%; in assay [5] (0.25 B1 alone) it was 39%. Also, the microbial growth percentage in assay [5] (0.5 B1 alone) and in assay [5] (1 B1 alone) was 0% throughout. Moreover, the “% MIC of B1 alone” value in assay [1] (setting [6]) was determined as 0.25%; in assay [3] (setting [6]), 0.5%; in assay [2] (setting [6]), 1%; in assay [4] (setting [6]), 0.25%; in assay [5] (setting [6]), 0.5%.
